According to PubChem BioAssay (NCI):
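A five-concentration, 48-hour dose response in 96-well plates underlies each endpoint, interpolated linearly between surrounding concentrations. TGI: concentration producing complete growth inhibition.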 Where a SMILES comes first, the peptide text is derived from it. [ ]: non-standard residue; d: D form. The star is where a group is joined. ξ: configuration not given here. dThr(3ξ) = CC(O)[C@@H](N)C(=O)O; dNMeL = CN[C@H](CC(C)C)C(=O)O; OBn = c1ccc(CO*)cc1; ξLac = CC(O)C(=O)O

Experiments:
Experiment in all cases: growth of human tumour cells (NCI), 48 h
SK-MEL-5 melanoma = test system: SK-MEL-5 melanoma
MCF7 breast = test system: MCF7 breast
MDA-MB-231 breast = test system: MDA-MB-231 breast
A498 renal = test system: A498 renal
SF-539 CNS = test system: SF-539 CNS
NCI-H522 lung = test system: NCI-H522 lung
ACHN renal = test system: ACHN renal
HOP-92 NSCLC = test system: HOP-92 NSCLC
A549 NSCLC = test system: A549 NSCLC
NCI-H226 lung = test system: NCI-H226 lung
OVCAR-3 ovarian = test system: OVCAR-3 ovarian
CAKI-1 renal = test system: CAKI-1 renal
HCT-116 colon = test system: HCT-116 colon
UACC-257 melanoma = test system: UACC-257 melanoma
RXF 393 renal = test system: RXF 393 renal
IGROV1 ovarian = test system: IGROV1 ovarian
MOLT-4 leukemia = test system: MOLT-4 leukemia
UACC-62 melanoma = test system: UACC-62 melanoma
786-0 renal = test system: 786-0 renal
T-47D breast = test system: T-47D breast

Row | Compound | TGI (SK-MEL-5 melanoma) [µM] | TGI (MCF7 breast) [µM] | TGI (MDA-MB-231 breast) [µM] | TGI (A498 renal) [µM] | TGI (SF-539 CNS) [µM] | TGI (NCI-H522 lung) [µM] | TGI (ACHN renal) [µM] | TGI (HOP-92 NSCLC) [µM] | TGI (A549 NSCLC) [µM] | TGI (NCI-H226 lung) [µM] | TGI (OVCAR-3 ovarian) [µM] | TGI (CAKI-1 renal) [µM] | TGI (HCT-116 colon) [µM] | TGI (UACC-257 melanoma) [µM] | TGI (RXF 393 renal) [µM] | TGI (IGROV1 ovarian) [µM] | TGI (MOLT-4 leukemia) [µM] | TGI (UACC-62 melanoma) [µM] | TGI (786-0 renal) [µM] | TGI (T-47D breast) [µM]
1 | N#CC1=C(S)N(C2OC(CO)C(O)C(O)C2O)C(c2ccccc2)=CC1c1ccccc1 (stereo unspecified) | 43.6 | > 100 | > 100 | > 100 | > 100 | > 100 | > 100 | > 100 | > 100 | > 100 | 98.5 | > 100 | > 100 | > 100 | 92.7 | > 100 | 86.8 | 62.7 | > 100 | 96.7
2 | CC(=O)OC(C)[C@@H](NC(=O)[C@@H](CC(C)C)N(C)C(=O)[C@@H]1CCCN1C(=O)C(C)O)C(=O)OCc1ccccc1 (stereo partly specified) (H-[ξLac]P[dNMeL][dThr(3ξ)](Ac)-OBn) | > 100 | > 100 | > 100 | > 100 | > 100 | > 100 | > 100 | > 100 | > 100 | > 100 | > 100 | > 100 | > 100 | > 100 | > 100 | > 100 | > 100 | > 100 | > 100 | > 100
3 | CC(C)[Si](OC1=C(C(=O)Nc2ccccc2Cl)CCCCC1)(C(C)C)C(C)C | > 100 | > 100 | > 100 | > 100 | > 100 | > 100 | > 100 | > 100 | > 100 | > 100 | > 100 | > 100 | > 100 | > 100 | > 100 | > 100 | > 100 | > 100 | > 100 | > 100
4 | CCOC(=O)c1nc2ccccc2nc1NCc1ccc(OC)cc1 | > 100 | > 100 | > 100 | > 100 | > 100 | > 100 | > 100 | > 100 | > 100 | > 100 | > 100 | > 100 | > 100 | > 100 | 71.5 | > 100 | > 100 | > 100 | > 100 | > 100
5 | COC(=O)c1ccc(N=NN(C)COc2ccc(C#N)cc2)cc1 | > 100 | > 100 | > 100 | > 100 | > 100 | > 100 | > 100 | > 100 | > 100 | > 100 | > 100 | > 100 | > 100 | > 100 | > 100 | > 100 | > 100 |  | > 100 | > 100
6 | N#Cc1c(-c2ccccc2)c(N=Nc2ccc(F)cc2)c(=O)n2c1[nH]c1ccccc12 | 4.94 | > 100 | > 50.9 | 41 | 32.2 | 14.7 | > 64.6 | 14.2 | 19.3 | 39.1 | 8.57 | 16.4 | 14.2 | > 100 | 44.6 | 35.7 | 7.78 | 26.3 | 14.3 | 40.8
7 | Cc1cc2c(cc1Cl)SC(N/N=C(\N)c1ccc(Cl)cc1)=NS2(=O)=O | > 100 | 64.7 | > 100 | 72.9 | 84.2 | > 100 | > 100 | 58.9 | > 100 | > 100 | > 100 | > 100 | > 100 | > 100 | > 100 | > 100 | > 100 | > 100 | > 100 | > 100
8 | O=C1c2cccnc2S(=O)N1Cc1ccccc1 (stereo unspecified) | > 100 | > 100 | > 100 | > 100 | > 100 | > 100 | > 100 | > 100 | > 100 | > 100 |  | > 100 | > 100 | > 100 | > 100 | > 100 | > 100 | > 100 | > 100 | > 100
9 | O=S(=O)(N=S(c1ccc(Cl)cc1)c1ccc(Cl)cc1)c1ccccc1 | > 100 | > 100 | > 100 | > 100 | > 100 | > 100 | > 100 | > 100 | > 100 | > 100 |  | > 100 | > 100 | > 100 | > 100 | > 100 | > 100 | > 100 | > 100 | > 100
10 | O=C1CC(CC(O)C(O)C(O)CO)CC(=O)N1 (stereo unspecified) | > 100 | > 100 | > 100 | > 100 | > 100 | > 100 | > 100 | > 100 | > 100 | > 100 | > 100 | > 100 | > 100 | > 100 | > 100 | > 100 | > 100 |  | > 100 | > 100
